{"source": "ChEMBL document CHEMBL2057075", "about": "“Guanacastane-type diterpenoids with cytotoxic activity from Coprinus plicatilis” (Bioorg Med Chem Lett, 2012)", "key": {"U2OS": {"test_system": "U2OS", "assay": "Cytotoxicity against human U2OS cells after 72 hrs by MTT assay", "type": "functional, cell-based"}, "BGC-823": {"test_system": "BGC-823", "assay": "Cytotoxicity against human BGC823 cells after 72 hrs by MTT assay", "type": "functional, cell-based", "details": "BGC-823, 72 h"}, "HepG2 [1]": {"test_system": "HepG2", "assay": "cells", "details": "Homo sapiens, HepG2, 72 h", "description": "Cytotoxicity against human HepG2 cells after 72 hrs by MTT assay"}, "HeLa": {"test_system": "HeLa", "assay": "cells", "details": "Homo sapiens, 72 h", "description": "Cytotoxicity against human HeLa cells after 72 hrs by MTT assay"}, "HCT-116": {"test_system": "HCT-116", "assay": "cells", "details": "Homo sapiens, HCT-116, 72 h"}, "HepG2 [2]": {"test_system": "HepG2", "assay": "Growth inhibition of human HepG2 cells at 20 uM after 72 hrs by MTT assay", "type": "functional, cell-based"}, "MDA-MB-231": {"test_system": "MDA-MB-231", "assay": "cells", "details": "Homo sapiens, MDA-MB-231, 72 h", "description": "Cytotoxicity against human MDA-MB-231 cells after 72 hrs by MTT assay"}}, "note": "pIC50: −log10 of the molar value. Calls of active or inactive are those of the source. The calls are words filed in the database; no cut-off is given here."}
{"smiles": "COc1cccc2c1C(=O)c1c(O)c3c(c(O)c1C2=O)C[C@@](O)(C(=O)CO)C[C@@H]3O[C@H]1C[C@H](N)[C@H](O)[C@H](C)O1", "note": "[DOXORUBICIN]", "values": [{"measurement": "pIC50", "setting": "U2OS", "value": 5.47}, {"measurement": "pIC50", "setting": "BGC-823", "value": 6.05}, {"measurement": "pIC50", "setting": "HepG2 [1]", "value": 6.15}, {"measurement": "pIC50", "setting": "HeLa", "value": 6.22}, {"measurement": "pIC50", "setting": "HCT-116", "value": 6.52}]}
{"smiles": "CC(C)[C@H]1[C@@H](O)[C@@H](O)C2=C3OC(=O)C4=C3[C@@](C)(CC[C@@H]4O)CC[C@@]21C", "note": "(relative stereo)", "values": [{"measurement": "pIC50", "setting": "U2OS", "value": 4.71}, {"measurement": "pIC50", "setting": "BGC-823", "value": 5.62}, {"measurement": "growth inhibition (GI)", "setting": "HepG2 [2]", "value": "Active"}, {"measurement": "pIC50", "setting": "HepG2 [1]", "value": 5.64}, {"measurement": "pIC50", "setting": "HeLa", "value": 5.30}, {"measurement": "pIC50", "setting": "HCT-116", "value": 5.92}, {"measurement": "pIC50", "setting": "MDA-MB-231", "value": 5.22}]}
{"smiles": "CC(C)[C@H]1[C@@H](O)C(=O)[C@@]2(O)[C@H]3OCC4=C3[C@@](C)(CC[C@@H]4O)CC[C@]12C", "note": "(relative stereo)", "values": [{"measurement": "pIC50", "setting": "U2OS", "value": 4.40}, {"measurement": "pIC50", "setting": "BGC-823", "value": 4.45}, {"measurement": "growth inhibition (GI)", "setting": "HepG2 [2]", "value": "Active"}, {"measurement": "pIC50", "setting": "HepG2 [1]", "value": 4.77}, {"measurement": "pIC50", "setting": "HeLa", "value": "< 4.30"}, {"measurement": "pIC50", "setting": "HCT-116", "value": 4.70}, {"measurement": "pIC50", "setting": "MDA-MB-231", "value": 4.46}]}
{"smiles": "CC(C)[C@H]1C(=O)CC2=C(O)C3=C(CO)[C@@H](O)CC[C@@]3(C)CC[C@@]21C", "note": "(relative stereo)", "values": [{"measurement": "pIC50", "setting": "U2OS", "value": "< 4.30"}, {"measurement": "pIC50", "setting": "BGC-823", "value": "< 4.30"}, {"measurement": "growth inhibition (GI)", "setting": "HepG2 [2]", "value": "Active"}, {"measurement": "pIC50", "setting": "HepG2 [1]", "value": 4.59}, {"measurement": "pIC50", "setting": "HeLa", "value": "< 4.30"}, {"measurement": "pIC50", "setting": "HCT-116", "value": 4.41}, {"measurement": "pIC50", "setting": "MDA-MB-231", "value": "< 4.30"}]}
{"smiles": "CC(C)[C@H]1[C@@H](O)[C@H](O)C2=CC3=C(CO)CCC[C@@]3(C)CC[C@@]21C", "note": "(relative stereo)", "values": [{"measurement": "growth inhibition (GI)", "setting": "HepG2 [2]", "value": "inactive"}]}
{"smiles": "CC(=O)O[C@H]1C(=O)[C@@H]2[C@H]3OCC4=C3[C@@](C)(CC[C@@H]4O)CC[C@]2(C)[C@H]1C(C)C", "values": [{"measurement": "growth inhibition (GI)", "setting": "HepG2 [2]", "value": "inactive"}]}
